Measured values as given in patent US20060047261A1, “Intra-arterial catheter for drug delivery” (priority 2004, published 2006).

How the values were obtained:
[1] = intracarotid; cited from earlier work
New Zealand rabbits = test: Intracarotid propofol (0.33% and 1%) before, during and after flow arrest: duration of electrocerebral silence; format: in vivo, rabbit
Description: The study was conducted on eight New Zealand rabbits that were subjected to six drug challenges. […] The flow arrest was produced by intravenous injection of esmolol (10 mg) and adenosine (30 mg).

[2] = co-administration of intracarotid verapamil; n=14, P=0.04

## CCCC(C)C1(CC)C(=O)NC(=S)NC1=O (stereo not drawn) [pentothal]
[1]
  loading dose of 1% pentothal: about 0.3±0.1 ml

## CC(C)c1cccc(C(C)C)c1O [propofol]
New Zealand rabbits; 0.33% vs 1% (1 or 3 mg) intracarotid, P=0.02, NS on post-hoc testing, n=8
  increase of the duration of EEG silence by changing concentration: 2-4 folds
New Zealand rabbits; intracarotid 1 or 3 mg during esmolol/adenosine flow arrest, n=8, P<0.0001
  increase of the duration of EEG silence by flow arrest: 15-20 folds
rabbits; after last intracarotid injection
  time to complete recovery of EEG activity and systemic changes (blood pressure): ≤ 10 min
rabbits; intracarotid, volume of 0.4 ml with 0.5% propofol
  EEG silence: produced EEG silence in all cases

## COc1ccc(CCN(C)CCCC(C#N)(c2ccc(OC)c(OC)c2)C(C)C)cc1OC (stereo not drawn) [verapamil]
[2]
  doses of intracarotid propofol required to produce 10 minutes of EEG silence: significantly increased
